Results as given in US20220226480A1, “LIPID CONJUGATE PREPARED FROM SCAFFOLD MOIETY” (Integrated Nanotherapeutics Inc., priority 2019, published 2022).

Legend:
J774.2 = experiment: Pro-inflammatory cytokine expression in LPS-stimulated macrophage cell line J774.2 (qRT-PCR); assay type: cell-based; conditions: LNP formulation at doses equivalent to 1, 3 or 10 μM dexamethasone, 24 hours, 10 ng/mL LPS, versus control LNP
Experimental: The graph depicts the expression of the cytokines IL-1β (top), TNFα (middle) and IL-6 (bottom) after 24 hours of incubation of the cells with the above components at doses equivalent to 1, 3 or 10 μM of dexamethasone, followed by stimulation by 10 ng/mL lipopolysaccharide (LPS) overnight. Cytokine levels were measured by qRT-PCR and data was normalized to cells treated with control LNP without drug-lipid conjugates.
(§1) Cultured macrophage cell lines J774.2 (FIG. 8) and Raw264.7 (FIG. 9A) were incubated with immunostimulant LPS and LNP with or without ricinoleyl-dexamethasone conjugate INT-D034/INT-D035. After 24 hours, cells were harvested and were analyzed for expression of pro-Inflammatory cytokines IL1β, TNFα and IL-6. RNA was isolated from the cells and levels of pro-inflammatory cytokines ILIβ, TNFα and IL6 were determined by qRT-PCR.

[1] = Particle size and polydispersity of LNP containing pro-drug (dynamic light scattering); assay type: physicochemical; parameters: Size of LNP: unit not given here
Experimental: (§2) LNPs were prepared by dissolving 1,2-Distearoyl-sn-glycero-3-phosphocholine (DSPC) or 1,2-dimyristoyl-sn-glycero-3-phosphocholine (DMPC), cholesterol and 1,2-Distearoyl-sn-glycero-3-phosphoethanolamine-Poly(ethylene glycol) (PEG-DSPE) in ethanol. DSPC, DMPC and PEG-DSPE were purchased from Avanti Polar Lipids (Alabaster, Ala.), and cholesterol was obtained from Sigma (St Louis, Mo.).
(§3) Drug-lipid-conjugates INT-D034, INT-D035, INT-D045, INT-D046, INT-D047, INT-D048, INT-D049, INT-D050, INT-D051, INT-D053, INT-D060, INT-D061, INT-D062, INT-D063, INT-D083, INT-D085, INT-D086, INT-D088 and INT-D089 (see FIG. 3 and Example 7 for structures) were dissolved in isopropanol or THF. LNP were prepared by rapidly mixing DSPC or DMPC, cholesterol, drug-lipid conjugate, and PEG-DSPE (in molar ratio of 49/40/10/1) with phosphate-buffered saline (PBS) using a cross-junction mixer. Formulations were dialyzed against PBS to remove residual ethanol. In formulation$ with more than 10 mol % drug-lipid conjugates, the amount of phospholipid or cholesterol was reduced accordingly.
(§4) The physiochemical properties of the LNPs prepared as described above were subsequently characterized. Particle size was determined by dynamic light scattering using a Malvern Zetasizer Nano ZS (Malvern, UK) following buffer exchange into phosphate-buffered saline. Number-weighted size and distribution date was used. Lipid concentrations were determined by measuring total cholesterol using the Cholesterol E enzymatic assay kit from Wako Chemicals USA (Richmond, Va.). The morphology of LNP formulations containing LD-DEX was analyzed by cryogenic-transmission electron microscopy (cryoTEM).

[2] = Encapsulation efficiency / incorporation of pro-drug in LNP; assay type: physicochemical; conditions: for Encapsulation Efficiency (%): LNP containing 10 mol % conjugate, primary PC-lipid DMPC; for % Entrapment: LNP formulations containing pro-drugs (10 mol %, FIG. 6A)
Experimental: as §2, §3, §4

Raw264.7 = experiment: Pro-inflammatory cytokine expression in LPS-stimulated Raw264.7 cells (qRT-PCR); assay type: cell-based; conditions: LNP formulation at doses equivalent to 1, 3 or 10 μM dexamethasone, 24 hours, 10 ng/mL LPS, versus control LNP
Experimental: The graph depicts the expression of the cytokines IL-10 (top), TNFα (middle) and IL-6 (bottom) after 24 hours of incubation of the cells with the above components at doses equivalent to 1, 3 or 10 μM of dexamethasone, followed by stimulation by 10 ng/mL LPS overnight. Cytokine levels were measured by qRT-PCR and data was normalized to cells treated with control LNP without drug-lipid conjugates.
The graph depicts the expression of the cytokines IL-10 after 24 hours of incubation of the cells with the above components at doses equivalent to 1 or 10 μM of dexamethasone, followed by stimulation by 10 ng/mL LPS overnight. Cytokine levels were measured by qRT-PCR and data was normalized to cells treated with control LNP without drug-lipid conjugates.
as §1

CD4+ T cells = experiment: Mixed lymphocyte reaction (MLR) assay, BMDCs with allogeneic CD4+ T cells; assay type: cell-based, mice; conditions: LNP containing 10-99 mol % conjugate; BMDCs treated 48 hours, LPS 24 hours; 5:1 or 10:1 T-to-BMDC ratio; 3 days; flow cytometry
Experimental: Bone marrow derived dendritic cells (BMDCs) from C57Bl/6 male mice were first treated with LNP containing various mol % of the dexamethasone or calcitriol conjugates for 48 hours and then activated by incubation with LIPS for 24 hours. They were then harvested and mixed with CD4+ T cells isolated from Balb/cJ male mice (Jackson Laboratories) at 5:1 or 10:1 T-to-BMDC ratio.
Dexamethasone and calcitriol can tolerize antigen presenting cells (APCs). […] Bone marrow derived dendritic cells (BMDCs) from C57BI/6 male mice (Charles River) were first treated with LNP containing various mol % of dexamethasone or calcitriol conjugates for 48 hours and then activated by incubation with LPS for 24 hours. They were then harvested and mixed with CD4+ T cells isolated from Balb/cl male mice (Jackson Laboratories) at 5:1 or 10:1 T-to-BMDC ratio. The levels of T cells proliferation after 3 days were quantified using flow cytometry.

[3] = LNP containing 10 mol % conjugate, primary PC-lipid DMPC
[4] = LNP formulations containing pro-drugs (10 mol %, FIG. 6A)
[5] = LNP, pro-drug concentration 10 %
[6] = LNP, pro-drug concentration 20 %
[7] = LNP, pro-drug concentration 30 %
[8] = LNP, pro-drug concentration 40 %
[9] = LNP, pro-drug concentration 50 %
[10] = LNP, pro-drug concentration 60 %
[11] = LNP, pro-drug concentration 80 %
[12] = LNP, pro-drug concentration 95 %
[13] = LNP, pro-drug concentration 98 %
[14] = LNP, pro-drug concentration 99 %
[15] = all LNP formulations at 0 to 99 mol % pro-drug concentration

## CCCCCCCC/C=C\CCCCCCCC(=O)O[C@@H](C/C=C\CCCCCCCCOC(=O)CCC(=O)OCC(=O)[C@@]1(O)[C@H](C)C[C@H]2[C@@H]3CCC4=CC(=O)C=C[C@]4(C)[C@@]3(F)[C@@H](O)C[C@@]21C)CCCCCC [INT-D035, 2-((8S,9R,10S,11S,13S,14S,16R,17R)-9-fluoro-11,17-dihydroxy-10,13,16-trimethyl-3-oxo-6,7,8,9,10,11,12,13,14,15,16,17-dodecahydro-3H-cyclopenta[a]phenanthren-17-yl)-2-oxoethyl ((R,Z)-12-(oleoyloxy)octadec-9-en-1-yl) succinate]
J774.2
  levels of pro-inflammatory cytokines (IL1β, TNFα, IL-6): reduced levels of pro-inflammatory cytokines in a dose-dependent manner
[1]; [3]
  Particle Diameter (nm): 67 nm
  Polydispersity index (PDI): 0.03
[1]; [4]
  PdI: 0.11
  Size of LNP: 64
[2]
  Encapsulation Efficiency (%): 100%
  % Entrapment: 99%
Raw264.7
  levels of pro-inflammatory cytokines (IL1β, TNFα, IL-6): reduced levels of pro-inflammatory cytokines in a dose-dependent manner

## CCCCCC[C@H](C/C=C\CCCCCCCCOC(=O)CCC(=O)OCC(=O)[C@@]1(O)[C@H](C)C[C@H]2[C@@H]3CCC4=CC(=O)C=C[C@]4(C)[C@@]3(F)[C@@H](O)C[C@@]21C)OC(=O)CCCCC [INT-D034, 2-((8S,9R,10S,11S,13S,14S,16R,17R)-9-Fluoro-11,17-dihydroxy-10,13,16-trimethyl-3-oxo-6,7,8,9,10,11,12,13,14,15,16,17-dodecahydro-3H-cyclopenta[a]57ctadic57rene-17-yl)-2-oxoethyl ((R,Z)-12-(hexanoyloxy)57ctadic-9-en-1-yl) succinate]
J774.2
  levels of pro-inflammatory cytokines (IL1β, TNFα, IL-6): reduced levels of pro-inflammatory cytokines in a dose-dependent manner
[1]; [3]
  Particle Diameter (nm): 72 nm
  Polydispersity index (PDI): 0.02
[1]; [4]
  PdI: 0.08
  Size of LNP: 70
[1]; [5]
  PdI: 0.064
  Size (nm): 48 nm
[1]; [6]
  PdI: 0.068
  Size (nm): 45 nm
[1]; [7]
  PdI: 0.082
  Size (nm): 43 nm
[1]; [8]
  PdI: 0.100
  Size (nm): 41 nm
[1]; [9]
  PdI: 0.085
  Size (nm): 32 nm
[1]; [10]
  PdI: 0.022
  Size (nm): 48 nm
[1]; [11]
  PdI: 0.025
  Size (nm): 87 nm
[1]; [12]
  PdI: 0.082
  Size (nm): 29 nm
[1]; [13]
  PdI: 0.014
  Size (nm): 52 nm
[1]; [14]
  PdI: 0.011
  Size (nm): 86 nm
[1]; [15]
  Polydispersity index (PDI): ≤ 0.1
  particle diameter: 29-87 nm
[2]
  Encapsulation Efficiency (%): 100%
  % Entrapment: 99%
[2]; [15]
  encapsulation efficiencies: high
Raw264.7
  levels of pro-inflammatory cytokines (IL1β, TNFα, IL-6): reduced levels of pro-inflammatory cytokines in a dose-dependent manner
CD4+ T cells
  allogeneic T-cell proliferation: able to suppress allogeneic T-cell proliferation
